In ChEMBL document CHEMBL5634094, “Micafungin: A promising inhibitor of UBE2M in cancer cell growth suppression” (Eur J Med Chem, 2023):
The source made the active and inactive calls. The calls are words filed in the database; no cut-off is given here. Starred links: 1 amine or outer side, 2 acyl side, 3 side chain; linkers in the order of their positions; H or OH if unused. Positions of bridges follow the written chain, without caps; N, C: chain ends. Non-standard residues stand in square brackets, D forms with d. Residues, ends and D or L forms follow the SMILES beside them. *: point of attachment. hTyr(3S-OH,4S-OH,3'-OSO3H) = N[C@H](C(=O)O)[C@H](O)[C@@H](O)c1ccc(O)c(OS(=O)(=O)O)c1; Orn(4R-OH,5R-OH) = O=C([C@H](C[C@@H](O)[C@@H](O)N[*:3])N[*:1])[*:2]; Pro(3S-OH,4S-Me) = C[C@H]1CN[C@H](C(=O)O)[C@H]1O; X1 = CCCCCOc1ccc(-c2cc(-c3ccc(C(=O)*)cc3)no2)cc1; Gln(3R-OH) = NC(=O)C[C@@H](O)[C@H](N)C(=O)O; Hyp = O=C(O)[C@@H]1C[C@@H](O)CN1

Legend:
[1] = target: T1, NEDD8/NEDD8-conjugating enzyme Ubc12 (Homo sapiens, UniProt P61081+Q15843); experiment: Inhibition of GST-tagged recombinant human UBE2M/His-tagged human NEDD8 interaction by HTRF assay relative to control; assay type: protein-complex assay
T1 sequence (Q15843 whole entry, one chain of several): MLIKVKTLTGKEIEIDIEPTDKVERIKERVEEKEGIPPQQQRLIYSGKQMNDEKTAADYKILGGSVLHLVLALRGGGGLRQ

[2] = target: T2, NEDD8-conjugating enzyme Ubc12 (Homo sapiens) (UniProt P61081); experiment: Binding affinity to GST-tagged recombinant human UBE2M assessed as protein stability at 55 to 60 degreeC incubated for 24 hrs by CETSA; assay type: cell-based; conditions: AGS
T2 sequence (whole entry): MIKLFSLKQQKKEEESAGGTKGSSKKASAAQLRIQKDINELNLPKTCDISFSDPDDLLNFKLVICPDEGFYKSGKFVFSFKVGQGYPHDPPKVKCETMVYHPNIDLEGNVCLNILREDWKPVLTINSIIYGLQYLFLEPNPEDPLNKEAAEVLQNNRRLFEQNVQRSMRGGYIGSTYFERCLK

[3] = target: T1, NEDD8/NEDD8-conjugating enzyme Ubc12; experiment: Inhibition of GST-tagged recombinant human UBE2M/His-tagged human NEDD8 interaction by HTRF assay; assay type: protein-complex assay
AGS [4] = experiment: Inhibition of colony formation of human AGS cells incubated for 10 days with replacement of drug containing medium every 3 days by crystal violet staining based analysis; assay type: functional, cell-based; conditions: dose 10-40 µM, time 10.0 day
[5] = target: T2, NEDD8-conjugating enzyme Ubc12 (Homo sapiens); experiment: Inhibition of neddylation of GST-tagged recombinant human UBE2M expressed in Escherichia coli (BL21) by Western blot analysis; conditions: dose 6.25-100 µM
AGS [6] = experiment: Inhibition of cell migration of human AGS cells at 50 uM incubated for 48 hrs by transwell assay; assay type: functional, cell-based
AGS [7] = experiment: Inhibition of global CULLIN neddylation in human AGS cells incubated for 24 hrs by immunoblot analysis; assay type: cell-based; conditions: dose 5-40 µM
AGS [8] = experiment: Inhibition of cell migration of human AGS cells at 50 uM incubated for 48 hrs by wound healing assay; assay type: functional, cell-based
[9] = target: T2, NEDD8-conjugating enzyme Ubc12 (Homo sapiens); experiment: Binding affinity to GST-tagged recombinant human UBE2M assessed as protein stability upto 70 degreeC at 20 uM preincubated for 10 mins followed by heat exposure by TSA
AGS [10] = experiment: Inhibition of cell migration of human AGS cells assessed as decrease in SNAIL level at 5 to 40 uM incubated for 48 hrs by Western blot analysis; assay type: functional, cell-based; conditions: dose 5-40 µM
AGS [11] = experiment: Induction of apoptosis in human AGS cells assessed as increase in NOXA level at 5 to 40 uM incubated for 24 hrs by immunoblot analysis; assay type: functional, cell-based; conditions: dose 5-40 µM
Homo sapiens = species on record: Homo sapiens; experiment: Inhibition of neddylation of His-tagged recombinant human NAE expressed in Escherichia coli (BL21) at 6.25 to 100 uM by Western blot analysis; conditions: dose 6.25-100 µM
AGS [12] = experiment: Inhibition of cell migration of human AGS cells assessed as decrease in VIMENTIN level at 5 to 40 uM incubated for 48 hrs by Western blot analysis; assay type: functional, cell-based; conditions: dose 5-40 µM
Cullin-1 (Homo sapiens) [13] = target: Cullin-1 (Homo sapiens) (UniProt Q13616); experiment: Inhibition of CULLIN-1 neddylation in human AGS cells assessed as increase in p27 level at 5 to 40 uM incubated for 24 hrs by immunoblot analysis; assay type: cell-based; conditions: dose 5-40 µM
Chain of Cullin-1 (Homo sapiens) (Q13616 whole entry): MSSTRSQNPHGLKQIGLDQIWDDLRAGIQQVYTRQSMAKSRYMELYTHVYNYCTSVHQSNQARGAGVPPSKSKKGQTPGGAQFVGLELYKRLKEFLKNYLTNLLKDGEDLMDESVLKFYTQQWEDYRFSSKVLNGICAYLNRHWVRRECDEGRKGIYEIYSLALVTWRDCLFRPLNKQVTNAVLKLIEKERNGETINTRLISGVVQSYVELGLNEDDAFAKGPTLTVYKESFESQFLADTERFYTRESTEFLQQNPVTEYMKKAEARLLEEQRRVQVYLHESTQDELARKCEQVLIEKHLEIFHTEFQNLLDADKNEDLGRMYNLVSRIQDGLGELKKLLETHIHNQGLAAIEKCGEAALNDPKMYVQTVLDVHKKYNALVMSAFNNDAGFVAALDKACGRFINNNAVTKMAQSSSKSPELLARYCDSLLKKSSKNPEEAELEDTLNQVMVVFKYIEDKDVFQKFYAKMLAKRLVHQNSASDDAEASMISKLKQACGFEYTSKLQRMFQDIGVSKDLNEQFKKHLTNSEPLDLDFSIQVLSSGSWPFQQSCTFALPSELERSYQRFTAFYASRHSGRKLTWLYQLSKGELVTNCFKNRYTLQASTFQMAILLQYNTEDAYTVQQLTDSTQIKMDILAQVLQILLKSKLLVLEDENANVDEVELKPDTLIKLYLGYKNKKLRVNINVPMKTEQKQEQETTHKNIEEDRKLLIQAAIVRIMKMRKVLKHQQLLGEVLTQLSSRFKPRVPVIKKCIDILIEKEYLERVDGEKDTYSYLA

AGS [14] = experiment: Induction of DNA damage in human AGS cells assessed as increase in phosphorylated H2Ax expression at 50 uM incubated for 48 hrs by immunofluorescence analysis; assay type: functional, cell-based
Cullin-1 (Homo sapiens) [15] = target: Cullin-1 (Homo sapiens) (UniProt Q13616); experiment: Inhibition of CULLIN-1 neddylation in human AGS cells incubated for 24 hrs by immunoblot analysis; assay type: cell-based; conditions: dose 5-40 µM
AGS [16] = experiment: Inhibition of cell viability in human AGS cells incubated for 72 to 120 hrs by MTT assay; assay type: functional, cell-based; conditions: dose 5-80 µM, time 72-120 hrs
[17] = target: T3, NEDD8-conjugating enzyme Ubc12 (Homo sapiens, UniProt P61081); experiment: Inhibition of UBE2M neddylation in human AGS cells incubated for 3 days by immunoblot analysis; assay type: cell-based
T3 sequence (P61081 whole entry): T2 sequence (whole entry)

AGS [18] = experiment: Induction of cell cycle arrest at G2 phase in human AGS cells at 20 to 40 uM incubated for 24 hrs by PI staining based FACS analysis; assay type: functional; conditions: dose 20-40 µM
AGS [19] = experiment: Induction of apoptosis in human AGS cells assessed as increase in cleaved caspase-3 level at 5 to 40 uM incubated for 24 hrs by immunoblot analysis; assay type: functional, cell-based; conditions: dose 5-40 µM
[20] = target: T2, NEDD8-conjugating enzyme Ubc12 (Homo sapiens); experiment: Binding affinity to GST-tagged recombinant human UBE2M assessed as protein stability at 60 degreeC preincubated for 10 mins followed by heat exposure by TSA; conditions: dose 1.25-20 µM
AGS [21] = experiment: Induction of cell cycle arrest in human AGS cells assessed as decrease in cell population at S phase at 20 to 40 uM incubated for 24 hrs by PI staining based FACS analysis; assay type: functional; conditions: dose 20-40 µM
[22] = target: T2, NEDD8-conjugating enzyme Ubc12 (Homo sapiens); experiment: Inhibition of […] conjugation to GST-tagged recombinant human UBE2M by pull-down based immunoprecipitation method
AGS [23] = experiment: Induction of cell cycle arrest at G2/M phase in human AGS cells at 20 to 40 uM incubated for 24 hrs by PI staining based FACS analysis; assay type: functional; conditions: dose 20-40 µM
Cullin-1 (Homo sapiens) [24] = target: Cullin-1 (Homo sapiens) (UniProt Q13616); experiment: Inhibition of CULLIN-1 neddylation in human AGS cells assessed as increase in p21 level incubated for 24 hrs by immunoblot analysis; assay type: cell-based; conditions: dose 5-40 µM
AGS [25] = experiment: Inhibition of cell migration of human AGS cells assessed as increase in E-CADHERIN level at 5 to 40 uM incubated for 48 hrs by Western blot analysis; assay type: functional, cell-based; conditions: dose 5-40 µM
AGS [26] = experiment: Induction of apoptosis in human AGS cells assessed as decrease in PARP-1 level at 5 to 40 uM incubated for 24 hrs by immunoblot analysis; assay type: functional, cell-based; conditions: dose 5-40 µM
[27] = target: T2, NEDD8-conjugating enzyme Ubc12 (Homo sapiens); experiment: Binding affinity to GST-tagged recombinant human UBE2M assessed as protein stability at 65 degreeC incubated for 24 hrs by CETSA; conditions: AGS
AGS [28] = experiment: Inhibition of cell migration of human AGS cells assessed as increase in N-CADHERIN level at 5 to 40 uM incubated for 48 hrs by Western blot analysis; assay type: functional, cell-based; conditions: dose 5-40 µM
[29] = Inhibition of His-tagged recombinant human NAE expressed in Escherichia coli (BL21) by HTRF assay

## CN(C)c1cc(NC(=O)CNC(C)(C)C)c(O)c2c1C[C@H]1C[C@H]3[C@H](N(C)C)C(O)=C(C(N)=O)C(=O)[C@@]3(O)C(O)=C1C2=O
[1]
  inhibition: 69.3%

## CN(C)[C@@H]1C(O)=C(C(N)=O)C(=O)[C@@]2(O)C(O)=C3C(=O)c4c(O)cccc4[C@@](C)(O)[C@H]3C[C@@H]12
[1]
  inhibition: 56.4%

## CN(C)[C@@H]1C(O)=C(C(N)=O)C(=O)[C@@]2(O)C(O)=C3C(=O)c4c(O)cccc4[C@@](C)(O)[C@H]3[C@H](O)[C@@H]12
[1]
  inhibition: 64.8%

## C[C@H]1c2cccc(O)c2C(=O)C2=C(O)[C@]3(O)C(=O)C(C(N)=O)=C(O)[C@@H](N(C)C)[C@@H]3[C@@H](O)[C@@H]21
[1]
  inhibition: 78.1%

## CN(C)c1ccc(O)c2c1C[C@H]1C[C@H]3[C@H](N(C)C)C(O)=C(C(N)=O)C(=O)[C@@]3(O)C(O)=C1C2=O
[1]
  inhibition: 58.9%

## Cc1cccc(N(C)C(=S)Oc2ccc3ccccc3c2)c1
[1]
  inhibition: 55.2%

## CCCCCOc1ccc(-c2cc(-c3ccc(C(=O)N[C@H]4C[C@@H](O)[C@@H](O)NC(=O)[C@@H]5[C@@H](O)[C@@H](C)CN5C(=O)[C@H]([C@H](O)CC(N)=O)NC(=O)[C@H]([C@H](O)[C@@H](O)c5ccc(O)c(OS(=O)(=O)O)c5)NC(=O)[C@@H]5C[C@@H](O)CN5C(=O)[C@H]([C@@H](C)O)NC4=O)cc3)no2)cc1 [MICAFUNGIN] (X1-[Orn(4R-OH,5R-OH)]T[Hyp][hTyr(3S-OH,4S-OH,3'-OSO3H)][Gln(3R-OH)][Pro(3S-OH,4S-Me)]; lactam 1-C)
[2]
  Activity: Active
[3]
  IC50: 17 µM
AGS [4]
  inhibition: Active
[5]
  inhibition: Dose-Dependent Effect
AGS [6]
  inhibition: Active
AGS [7]
  inhibition: Active
AGS [8]
  inhibition: Active
[9]
  Activity: Active
AGS [10]
  inhibition: Active
AGS [11]
  Activity: Active
Homo sapiens
  inhibition: inactive
AGS [12]
  inhibition: Active
Cullin-1 (Homo sapiens) [13]
  inhibition: Active
AGS [14]
  Activity: Active
[1]
  inhibition: 66.2%
Cullin-1 (Homo sapiens) [15]
  inhibition: Active
AGS [16]
  inhibition: Active
[17]
  IC50: 39.9 µM
AGS [18]
  Activity: Active
AGS [19]
  Activity: Active
[20]
  Activity: Dose-Dependent Effect
AGS [21]
  Activity: Active
[22]
  inhibition: Active
AGS [23]
  Activity: Active
Cullin-1 (Homo sapiens) [24]
  inhibition: Dose-Dependent Effect
AGS [25]
  inhibition: Active
AGS [26]
  Activity: Active
[27]
  Activity: inactive
AGS [28]
  inhibition: Active

## COc1cccc2c1C(=O)c1c(O)c3c(c(O)c1C2=O)C[C@@](O)(C(=O)CO)C[C@@H]3O[C@H]1C[C@H](N)[C@H](O)[C@H](C)O1
[1]
  inhibition: 76.5%

## NS(=O)(=O)OC[C@@H]1C[C@@H](n2ccc3c(N[C@H]4CCc5ccccc54)ncnc32)C[C@@H]1O [PEVONEDISTAT]
[29]
  IC50: 0.0058 µM

## CCCCCCCCOc1ccccc1C(=O)Nc1ccc(C(=O)OCC[N+](C)(CC)CC)cc1
Homo sapiens
  inhibition: Active
[1]
  inhibition: 74.2%

## CCCCCCCCCCCC[N+](C)(C)CCOc1ccccc1
[1]
  inhibition: 56.5%

## Cc1cc(Nc2ncc(Cl)c(Nc3ccccc3S(=O)(=O)C(C)C)n2)c(OC(C)C)cc1C1CCNCC1
Homo sapiens
  inhibition: Active
[1]
  inhibition: 88.2%
